Source: patent US9340590B2 (priority 2011, dated 2016)
Positions of bridges follow the written chain, without caps; N, C: chain ends. Non-standard residues stand in square brackets, D forms with d. Residues, ends and D or L forms follow the SMILES beside them. Trp(1-Me) = Cn1cc(C[C@H](N)C(=O)O)c2ccccc21; 1Nal = N[C@@H](Cc1cccc2ccccc12)C(=O)O

What was measured:
Test in all cases: cell-based
[1] = molecular target: hNav1.7 (Homo sapiens, UniProt Q15858); settings: Nav1.7 Use IC50
[2] = molecular target: hNav1.3 (Homo sapiens, UniProt Q9NY46); assay type: cell-based; settings: Nav1.3 Use IC50
[3] = molecular target: hNav1.5 (Homo sapiens, UniProt Q14524)
hNav1.5, sequence (Q14524 whole entry, looked up): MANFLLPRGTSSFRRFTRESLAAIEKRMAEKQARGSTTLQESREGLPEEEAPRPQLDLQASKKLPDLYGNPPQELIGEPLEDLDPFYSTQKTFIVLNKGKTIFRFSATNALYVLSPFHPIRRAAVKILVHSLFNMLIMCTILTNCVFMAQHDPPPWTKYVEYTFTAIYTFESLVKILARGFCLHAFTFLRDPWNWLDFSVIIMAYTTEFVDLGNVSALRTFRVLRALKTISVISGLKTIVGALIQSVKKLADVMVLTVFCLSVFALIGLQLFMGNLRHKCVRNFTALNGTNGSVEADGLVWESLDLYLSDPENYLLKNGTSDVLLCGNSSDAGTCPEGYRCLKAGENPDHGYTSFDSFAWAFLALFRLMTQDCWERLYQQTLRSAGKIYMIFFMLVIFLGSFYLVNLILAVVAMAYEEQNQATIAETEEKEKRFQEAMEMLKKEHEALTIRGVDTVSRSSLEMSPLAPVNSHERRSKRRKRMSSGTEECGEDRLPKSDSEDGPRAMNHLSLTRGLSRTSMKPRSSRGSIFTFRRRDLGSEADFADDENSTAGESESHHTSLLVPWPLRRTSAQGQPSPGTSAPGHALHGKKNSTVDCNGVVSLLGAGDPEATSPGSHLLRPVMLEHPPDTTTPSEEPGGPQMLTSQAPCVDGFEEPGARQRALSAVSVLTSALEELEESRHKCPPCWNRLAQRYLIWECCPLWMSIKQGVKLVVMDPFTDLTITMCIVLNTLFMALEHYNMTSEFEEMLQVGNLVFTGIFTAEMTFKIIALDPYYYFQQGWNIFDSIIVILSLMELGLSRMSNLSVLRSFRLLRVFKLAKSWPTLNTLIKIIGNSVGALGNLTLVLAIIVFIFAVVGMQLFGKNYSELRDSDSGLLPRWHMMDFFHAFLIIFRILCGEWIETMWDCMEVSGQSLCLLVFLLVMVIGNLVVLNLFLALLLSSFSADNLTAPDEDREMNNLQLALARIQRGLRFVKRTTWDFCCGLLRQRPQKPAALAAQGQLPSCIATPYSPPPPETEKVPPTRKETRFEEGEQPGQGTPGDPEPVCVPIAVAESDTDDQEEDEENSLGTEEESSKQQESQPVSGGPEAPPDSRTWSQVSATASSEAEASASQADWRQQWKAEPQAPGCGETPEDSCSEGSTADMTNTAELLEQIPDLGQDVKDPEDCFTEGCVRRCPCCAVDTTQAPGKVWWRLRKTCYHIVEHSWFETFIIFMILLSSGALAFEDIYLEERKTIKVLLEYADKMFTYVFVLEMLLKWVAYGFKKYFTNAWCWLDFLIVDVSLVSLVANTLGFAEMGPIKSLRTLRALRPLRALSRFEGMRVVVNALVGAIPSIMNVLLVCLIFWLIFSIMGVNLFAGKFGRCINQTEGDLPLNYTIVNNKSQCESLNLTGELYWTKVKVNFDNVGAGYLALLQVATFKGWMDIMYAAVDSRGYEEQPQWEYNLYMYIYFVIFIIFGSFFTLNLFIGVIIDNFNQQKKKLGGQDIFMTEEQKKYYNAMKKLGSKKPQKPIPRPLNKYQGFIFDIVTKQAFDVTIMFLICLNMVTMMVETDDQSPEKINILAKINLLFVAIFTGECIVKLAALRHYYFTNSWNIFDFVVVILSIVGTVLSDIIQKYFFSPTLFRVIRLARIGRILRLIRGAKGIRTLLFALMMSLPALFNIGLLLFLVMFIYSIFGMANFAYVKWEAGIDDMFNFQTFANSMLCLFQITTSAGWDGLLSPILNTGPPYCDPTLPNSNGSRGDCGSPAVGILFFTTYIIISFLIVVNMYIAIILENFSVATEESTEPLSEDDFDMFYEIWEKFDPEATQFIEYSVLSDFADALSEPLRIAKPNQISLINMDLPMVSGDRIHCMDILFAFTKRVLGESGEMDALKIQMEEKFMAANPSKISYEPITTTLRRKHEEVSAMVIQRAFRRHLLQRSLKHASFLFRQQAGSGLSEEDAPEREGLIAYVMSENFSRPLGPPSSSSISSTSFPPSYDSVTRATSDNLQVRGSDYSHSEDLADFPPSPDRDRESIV

hNav1.3, sequence (Q9NY46 whole entry, looked up): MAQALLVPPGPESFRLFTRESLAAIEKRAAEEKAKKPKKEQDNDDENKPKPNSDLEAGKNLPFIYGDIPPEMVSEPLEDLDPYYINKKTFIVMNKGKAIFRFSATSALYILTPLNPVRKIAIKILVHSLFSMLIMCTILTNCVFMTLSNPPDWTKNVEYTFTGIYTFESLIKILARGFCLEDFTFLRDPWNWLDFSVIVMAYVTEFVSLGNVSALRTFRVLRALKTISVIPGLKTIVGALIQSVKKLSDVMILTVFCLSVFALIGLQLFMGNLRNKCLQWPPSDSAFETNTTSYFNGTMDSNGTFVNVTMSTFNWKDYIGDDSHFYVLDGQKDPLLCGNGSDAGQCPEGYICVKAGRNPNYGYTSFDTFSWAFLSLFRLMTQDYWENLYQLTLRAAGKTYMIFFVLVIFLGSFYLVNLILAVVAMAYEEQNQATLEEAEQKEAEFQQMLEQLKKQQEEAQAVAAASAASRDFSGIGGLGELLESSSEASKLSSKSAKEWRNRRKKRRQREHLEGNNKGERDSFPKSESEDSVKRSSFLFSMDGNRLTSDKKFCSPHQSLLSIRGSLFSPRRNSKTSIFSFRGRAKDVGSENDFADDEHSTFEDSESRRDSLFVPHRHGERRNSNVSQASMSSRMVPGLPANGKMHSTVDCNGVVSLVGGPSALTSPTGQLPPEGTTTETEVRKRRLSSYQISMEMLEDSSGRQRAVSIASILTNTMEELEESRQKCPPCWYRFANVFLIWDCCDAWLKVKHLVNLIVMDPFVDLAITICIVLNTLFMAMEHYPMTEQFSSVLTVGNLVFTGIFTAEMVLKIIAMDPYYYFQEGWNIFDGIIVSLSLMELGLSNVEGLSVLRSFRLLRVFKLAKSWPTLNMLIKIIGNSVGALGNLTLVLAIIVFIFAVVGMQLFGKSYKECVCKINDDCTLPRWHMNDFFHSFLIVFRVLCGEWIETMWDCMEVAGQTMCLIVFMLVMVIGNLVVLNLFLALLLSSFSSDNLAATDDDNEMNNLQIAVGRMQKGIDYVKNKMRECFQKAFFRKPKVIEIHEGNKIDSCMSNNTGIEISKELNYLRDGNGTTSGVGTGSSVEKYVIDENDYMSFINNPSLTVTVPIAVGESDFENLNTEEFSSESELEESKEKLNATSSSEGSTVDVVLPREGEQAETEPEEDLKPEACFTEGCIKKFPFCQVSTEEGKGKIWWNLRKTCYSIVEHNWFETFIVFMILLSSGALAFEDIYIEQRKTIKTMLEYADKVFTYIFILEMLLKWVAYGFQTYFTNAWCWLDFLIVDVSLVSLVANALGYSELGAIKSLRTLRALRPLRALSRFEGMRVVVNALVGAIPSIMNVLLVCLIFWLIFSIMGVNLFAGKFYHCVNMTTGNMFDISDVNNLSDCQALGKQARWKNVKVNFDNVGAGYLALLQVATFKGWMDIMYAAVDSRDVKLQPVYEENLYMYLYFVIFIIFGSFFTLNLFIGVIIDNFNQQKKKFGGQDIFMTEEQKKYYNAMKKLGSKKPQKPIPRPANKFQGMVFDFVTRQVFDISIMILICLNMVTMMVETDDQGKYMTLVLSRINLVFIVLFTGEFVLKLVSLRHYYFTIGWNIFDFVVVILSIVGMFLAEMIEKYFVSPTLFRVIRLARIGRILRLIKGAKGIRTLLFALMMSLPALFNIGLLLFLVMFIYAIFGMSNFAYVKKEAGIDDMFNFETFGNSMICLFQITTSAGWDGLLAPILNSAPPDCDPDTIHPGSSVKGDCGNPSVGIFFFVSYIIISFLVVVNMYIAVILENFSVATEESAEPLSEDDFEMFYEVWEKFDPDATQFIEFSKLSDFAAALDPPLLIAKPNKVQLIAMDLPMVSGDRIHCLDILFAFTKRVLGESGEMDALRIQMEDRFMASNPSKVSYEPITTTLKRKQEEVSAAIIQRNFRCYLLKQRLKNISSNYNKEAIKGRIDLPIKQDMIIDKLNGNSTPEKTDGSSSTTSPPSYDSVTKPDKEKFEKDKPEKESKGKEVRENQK

CC[C@H](C)[C@@H]1NC(=O)[C@@H]2CSSC[C@@H]3NC(=O)[C@H](C(C)C)NC(=O)[C@H](CC(C)C)NC(=O)[C@H](CC(N)=O)NC(=O)[C@@H]4CCCN4C(=O)[C@H](CCCNC(=N)N)NC(=O)[C@H](CSSC[C@H](NC(=O)[C@@H](N)CC(=O)O)C(=O)N[C@@H](CC(C)C)C(=O)NCC(=O)N[C@@H](Cc4ccccc4)C(=O)N[C@@H](CCSC)C(=O)N[C@@H](CCCNC(=N)N)C(=O)N[C@@H](CCCCN)C(=O)N2)NC(=O)[C@H](CSSC[C@@H](C(=O)N[C@@H](CCCCN)C(=O)N[C@@H](Cc2ccc(O)cc2)C(=O)N[C@H](C(=O)N[C@@H](Cc2ccccc2)C(=O)N[C@@H](Cc2c[nH]c4ccccc24)C(N)=O)C(C)C)NC(=O)[C@H](Cc2c[nH]c4ccccc24)NC(=O)[C@H](CCCCN)NC(=O)[C@H](Cc2c[nH]cn2)NC(=O)[C@H]([C@@H](C)O)NC(=O)[C@H](CCCNC(=N)N)NC(=O)[C@H](CO)NC3=O)NC(=O)[C@H](CCCCN)NC(=O)[C@H](CC(=O)O)NC(=O)[C@H](CC(N)=O)NC(=O)[C@H](CC(=O)O)NC(=O)[C@@H]2CCCN2C1=O [GpTx-1(1-34)-Trp] was tested, and the IC50 [1] was 9 nM, the IC50 [2] was 15 nM and the IC50 [3] was 2660 nM.
For CC[C@H](C)[C@@H]1NC(=O)[C@@H]2CSSC[C@@H]3NC(=O)[C@H](C(C)C)NC(=O)[C@H](CC(C)C)NC(=O)[C@H](CC(N)=O)NC(=O)[C@@H]4CCCN4C(=O)[C@H](CCCNC(=N)N)NC(=O)[C@H](CSSC[C@H](NC(=O)[C@@H](N)CC(=O)O)C(=O)N[C@@H](CC(C)C)C(=O)NCC(=O)N[C@@H](Cc4ccccc4)C(=O)N[C@@H](CCSC)C(=O)N[C@@H](CCCNC(=N)N)C(=O)N[C@@H](CCCCN)C(=O)N2)NC(=O)[C@H](CSSC[C@@H](C(=O)N[C@@H](CCCCN)C(=O)N[C@@H](Cc2cccc4ccccc24)C(=O)N[C@H](C(=O)N[C@@H](Cc2ccccc2)C(N)=O)C(C)C)NC(=O)[C@H](Cc2c[nH]c4ccccc24)NC(=O)[C@H](CCCCN)NC(=O)[C@H](Cc2cnc[nH]2)NC(=O)[C@H]([C@@H](C)O)NC(=O)[C@H](CCCNC(=N)N)NC(=O)[C@H](CO)NC3=O)NC(=O)[C@H](CCCCN)NC(=O)[C@H](CC(=O)O)NC(=O)[C@H](CC(N)=O)NC(=O)[C@H](CC(=O)O)NC(=O)[C@@H]2CCCN2C1=O [[1-Nal32]GpTx-1(1-34)] (H-DCLGFMRKCIPDNDKCCRPNLVCSRTHKWCK[1Nal]VF-NH2; disulfide 2-17, 9-23, 16-30), the IC50 [2] was 12 nM and the IC50 [3] was 988 nM.
CC[C@H](C)[C@@H]1NC(=O)[C@@H]2CSSC[C@@H]3NC(=O)[C@H](C(C)C)NC(=O)[C@H](CC(C)C)NC(=O)[C@H](CC(N)=O)NC(=O)[C@@H]4CCCN4C(=O)[C@H](CCCNC(=N)N)NC(=O)[C@H](CSSC[C@H](NC(=O)[C@@H](N)CC(=O)O)C(=O)N[C@@H](CC(C)C)C(=O)NCC(=O)N[C@@H](Cc4ccccc4)C(=O)N[C@@H](CCSC)C(=O)N[C@@H](CCCNC(=N)N)C(=O)N[C@@H](CCCCN)C(=O)N2)NC(=O)[C@H](CSSC[C@@H](C(=O)N[C@@H](CCCCN)C(=O)N[C@@H](Cc2ccc(O)cc2)C(=O)N[C@H](C(=O)N[C@@H](Cc2cccc4ccccc24)C(N)=O)C(C)C)NC(=O)[C@H](Cc2c[nH]c4ccccc24)NC(=O)[C@H](CCCCN)NC(=O)[C@H](Cc2cnc[nH]2)NC(=O)[C@H]([C@@H](C)O)NC(=O)[C@H](CCCNC(=N)N)NC(=O)[C@H](CO)NC3=O)NC(=O)[C@H](CCCCN)NC(=O)[C@H](CC(=O)O)NC(=O)[C@H](CC(N)=O)NC(=O)[C@H](CC(=O)O)NC(=O)[C@@H]2CCCN2C1=O [[1-Nal34]GpTx-1(1-34)] (H-DCLGFMRKCIPDNDKCCRPNLVCSRTHKWCKYV[1Nal]-NH2; disulfide 2-17, 9-23, 16-30) was tested, and the IC50 [1] was 4 nM, the IC50 [2] was 7 nM and the IC50 [3] was 1860 nM.
In the case of CC[C@H](C)[C@@H]1NC(=O)[C@@H]2CSSC[C@@H]3NC(=O)[C@H](C(C)C)NC(=O)[C@H](CC(C)C)NC(=O)[C@H](CC(N)=O)NC(=O)[C@@H]4CCCN4C(=O)[C@H](CCCNC(=N)N)NC(=O)[C@H](CSSC[C@H](NC(=O)[C@@H](N)CC(=O)O)C(=O)N[C@@H](CC(C)C)C(=O)NCC(=O)N[C@@H](Cc4ccccc4)C(=O)N[C@@H](CCSC)C(=O)N[C@@H](CCCNC(=N)N)C(=O)N[C@@H](CCCCN)C(=O)N2)NC(=O)[C@H](CSSC[C@@H](C(=O)N[C@@H](CCCCN)C(=O)N[C@@H](Cc2cn(C)c4ccccc24)C(=O)N[C@H](C(=O)N[C@@H](Cc2ccccc2)C(N)=O)C(C)C)NC(=O)[C@H](Cc2c[nH]c4ccccc24)NC(=O)[C@H](CCCCN)NC(=O)[C@H](Cc2c[nH]cn2)NC(=O)[C@H]([C@@H](C)O)NC(=O)[C@H](CCCNC(=N)N)NC(=O)[C@H](CO)NC3=O)NC(=O)[C@H](CCCCN)NC(=O)[C@H](CC(=O)O)NC(=O)[C@H](CC(N)=O)NC(=O)[C@H](CC(=O)O)NC(=O)[C@@H]2CCCN2C1=O [[1′NMeW32]GpTx-1(1-34)] (H-DCLGFMRKCIPDNDKCCRPNLVCSRTHKWCK[Trp(1-Me)]VF-NH2; disulfide 2-17, 9-23, 16-30), the IC50 [1] is reported as 6 nM, the IC50 [2] is reported as 18 nM and the IC50 [3] is reported as 6850 nM.
CC[C@H](C)[C@@H]1NC(=O)[C@@H]2CSSC[C@@H]3NC(=O)[C@H](C(C)C)NC(=O)[C@H](CC(C)C)NC(=O)[C@H](CC(N)=O)NC(=O)[C@@H]4CCCN4C(=O)[C@H](CCCNC(=N)N)NC(=O)[C@H](CSSC[C@H](NC(=O)[C@@H](N)CC(=O)O)C(=O)N[C@@H](CC(C)C)C(=O)NCC(=O)N[C@@H](Cc4ccccc4)C(=O)N[C@@H](CCSC)C(=O)N[C@@H](CCCNC(=N)N)C(=O)N[C@@H](CCCCN)C(=O)N2)NC(=O)[C@H](CSSC[C@@H](C(=O)N[C@@H](CCCCN)C(=O)N[C@@H](Cc2ccc(O)cc2)C(=O)N[C@@H](Cc2cn(C)c4ccccc24)C(=O)N[C@@H](Cc2ccccc2)C(N)=O)NC(=O)[C@H](Cc2c[nH]c4ccccc24)NC(=O)[C@H](CCCCN)NC(=O)[C@H](Cc2c[nH]cn2)NC(=O)[C@H]([C@@H](C)O)NC(=O)[C@H](CCCNC(=N)N)NC(=O)[C@H](CO)NC3=O)NC(=O)[C@H](CCCCN)NC(=O)[C@H](CC(=O)O)NC(=O)[C@H](CC(N)=O)NC(=O)[C@H](CC(=O)O)NC(=O)[C@@H]2CCCN2C1=O [[1′NMeW33]GpTx-1(1-34)] (H-DCLGFMRKCIPDNDKCCRPNLVCSRTHKWCKY[Trp(1-Me)]F-NH2; disulfide 2-17, 9-23, 16-30) showed an IC50 [1] of 54 nM, an IC50 [2] of 37 nM and an IC50 [3] of 9540 nM.
CC[C@H](C)[C@@H]1NC(=O)[C@@H]2CSSC[C@@H]3NC(=O)[C@H](C(C)C)NC(=O)[C@H](CC(C)C)NC(=O)[C@H](CC(N)=O)NC(=O)[C@@H]4CCCN4C(=O)[C@H](CCCNC(=N)N)NC(=O)[C@H](CSSC[C@H](NC(=O)[C@@H](N)CC(=O)O)C(=O)N[C@@H](CC(C)C)C(=O)NCC(=O)N[C@@H](Cc4ccccc4)C(=O)N[C@@H](CCSC)C(=O)N[C@@H](CCCNC(=N)N)C(=O)N[C@@H](CCCCN)C(=O)N2)NC(=O)[C@H](CSSC[C@@H](C(=O)N[C@@H](CCCCN)C(=O)N[C@@H](Cc2ccc(O)cc2)C(=O)N[C@H](C(=O)N[C@@H](Cc2ccccc2)C(N)=O)C(C)C)NC(=O)[C@H](Cc2c[nH]c4ccccc24)NC(=O)[C@H](CCCCN)NC(=O)[C@H](Cc2cnc[nH]2)NC(=O)[C@H](CCCNC(=N)N)NC(=O)[C@H](CCCNC(=N)N)NC(=O)[C@H](CO)NC3=O)NC(=O)[C@H](CCCCN)NC(=O)[C@H](CC(=O)O)NC(=O)[C@H](CC(N)=O)NC(=O)[C@H](CC(=O)O)NC(=O)[C@@H]2CCCN2C1=O [[Arg26]GpTx-1(1-34)] (H-DCLGFMRKCIPDNDKCCRPNLVCSRRHKWCKYVF-NH2; disulfide 2-17, 9-23, 16-30) gave an IC50 [2] of 10 nM and an IC50 [3] of 573 nM.
